“And” between values parts separate entries of the source, which are not always exact repeats. Identical values can stand only once.
Tests used:
[1] = molecular target: T1, Polθ-pol on DNA/DNA (Homo sapiens, UniProt O75417); assay: Relative rate of ddCMP addition on DNA/DNA; assay type: biochemical; conditions: for Average % Extension (Single nt) / % Extension (Single nt): DNA template, 2uM RTX-161; for Average % Extension (Single nt): average of 3 trials; for % Extension (Single nt): single trials 1-3
T1 construct: purified recombinant human Polθ-pol (comprising amino acid residues 1792–2590); made in house
T1 sequence (O75417 1792-2590): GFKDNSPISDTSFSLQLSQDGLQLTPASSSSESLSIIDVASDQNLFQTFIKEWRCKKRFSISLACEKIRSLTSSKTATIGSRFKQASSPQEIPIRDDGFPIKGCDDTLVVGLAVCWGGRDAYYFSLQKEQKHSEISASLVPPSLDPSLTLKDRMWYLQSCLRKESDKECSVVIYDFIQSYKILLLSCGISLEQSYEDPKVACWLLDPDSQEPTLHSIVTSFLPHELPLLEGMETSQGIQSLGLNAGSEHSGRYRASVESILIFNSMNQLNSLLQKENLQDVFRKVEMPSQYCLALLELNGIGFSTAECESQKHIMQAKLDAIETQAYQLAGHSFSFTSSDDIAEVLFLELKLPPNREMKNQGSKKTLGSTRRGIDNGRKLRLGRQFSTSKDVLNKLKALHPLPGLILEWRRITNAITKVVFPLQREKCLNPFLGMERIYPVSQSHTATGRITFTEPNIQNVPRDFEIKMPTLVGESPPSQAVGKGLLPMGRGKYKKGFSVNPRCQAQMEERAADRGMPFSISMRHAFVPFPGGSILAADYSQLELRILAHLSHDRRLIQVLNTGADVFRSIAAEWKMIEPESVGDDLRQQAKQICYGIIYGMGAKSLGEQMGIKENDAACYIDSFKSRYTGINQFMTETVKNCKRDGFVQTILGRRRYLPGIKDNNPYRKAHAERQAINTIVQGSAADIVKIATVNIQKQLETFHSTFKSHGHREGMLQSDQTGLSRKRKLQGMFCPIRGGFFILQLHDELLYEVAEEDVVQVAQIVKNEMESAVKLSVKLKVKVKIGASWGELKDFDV
Protocol: Relative rate of Polθ-pol dAMP addition. The relative rates of dAMP incorporation by Polq-pol in the presence of DMSO or MC160385 with various concentrations of dATP were measured using the following primer extension assay in vitro. 2 nM or Polθ-pol was incubated with 5’ ^32P-γ-ATP labeled 100 nM primer-template (RP469D/RP486) in 1X buffer (25 mM TrisHCl pH 7.8, 0.01% NP40, 10% glycerol, 1 mM DTT, 10 mM MgCl2, 0.1 mg/ml BSA) at room temp. 2.5% DMSO, 7.5 nM or 12 nM of MC160385 was added. Reactions were than initiated by the addition of 20, 50, 100, 200, or 300 μM dATP at room temp. Aliquots of the reactions were removed and terminated by the addition of 50 mM EDTA at 3, 3.5, 4 and 5 min after the reaction was initiated. Radio-labeled DNA was then resolved via denaturing 20% PAGE and visualized by Typhoon PhosphorImager (GE Amersham). Rates of dAMP incorporation were calculated from % extension of the prime-template which was determined using ImageJ software. Relative rate of ddCMP addition on DNA/DNA and DNA/RNA. 25 nM nucleic acid DNA/DNA or DNA/RNA primer-template (RP559/RP702 or RP559/RP702R) was mixed with 1X reaction buffer (20 mM TrisHCl pH 7.5, 0.01% NP-40, 0.5 mM DTT, 10% glycerol, 0.1 mg/ml BSA, 10 mM MgCl2) in the presence of 250 μM ddCTP at room temp. Next, 2 μM RTx-161 or 2.5% DMSO was added. Reactions were initiated by the addition of 10 nM Polθ-pol. Reaction aliquots were removed and terminated by the addition of 50 mM EDTA at the indicated time points. Radio-labeled DNA was then resolved via denaturing 20% PAGE and visualized by Typhoon PhosphorImager. Percent primer extension by single ddCMP addition at each time point was calculated from % extension of the prime-template which was determined using ImageJ software.

[2] = test system: Brca1^CC/CC MEFs; assay: Clonogenic assay; assay type: cell-based, mouse; conditions: for pooled Average (normalized) / Normalized: MEF CC; for pooled Average (normalized): pooled average of 3 experiments; for Normalized: single experiments 1-3, 0 micro M = 100; for survival relative to 0 uM / survival relative to 0 uM, mean of the four experiments: cc; for survival relative to 0 uM: 150 cells/well, experiments 2023-04-07 and 2023-04-13; for survival relative to 0 uM, mean of the four experiments: last block without head (mean of 4)
Protocol: (§1) Cells were plated on six or twelve or twenty-four well plates. In six well plate, 1000 cells/ well of BRCA2 -/-, BRCA1 -/-, PALB2 mut and 500 cells/ well of wildtype pair was plated; In twelve well plate, 600 cells/ well of BRCA2 -/-, BRCA1 -/-, PALB2 mut and 400 cells/ well of wildtype pair was plated; In twenty-four well plate, 500 cells/ well of BRCA2 -/-, BRCA1 -/-, PALB2 mut and 300 cells/ well of wildtype pair was plated. […] The medium was replaced every 2 days until the colonies were ready for staining in 10–12 days. For staining: Medium was removed from plates, and cells were rinsed with PBS. Fixation was carried out with—Water: Ethanol: Acetic acid (5:4:1) for 30 min followed by staining of colonies with 0.5% crystal violet in Water: Ethanol (3:2) for 2 h at room temperature. The plates were rinsed with water and left for drying overnight at room temperature. Colonies were then counted and IC50 was calculated using results from 3 or more independent experiments. Response curves are shown as mean colony formation +/- S.E.M.

[3] = test system: Brca1-WT MEFs; assay: Clonogenic assay; assay type: cell-based, mouse; conditions: for pooled Average (normalized) / Normalized: MEF WT; for pooled Average (normalized): pooled average of 3 experiments; for Normalized: single experiments 1-3, 0 micro M = 100; for survival relative to 0 uM / survival relative to 0 uM, mean of the four experiments: WT; for survival relative to 0 uM: experiments 2023-04-07 and 2023-04-13; for survival relative to 0 uM, mean of the four experiments: last block without head (mean of 4)
Protocol: as §1

For CN(C(=O)Oc1c(N2CCN(CCO)C2=O)cc(C(F)(F)F)cc1C(F)(F)F)c1ccc(F)cc1 [RTx-161], the “inhibition of single nucleotide incorporation on DNA/DNA” value ([1]; 2 μM RTx-161, closed conformation) was “significant inhibition”, the “Average % Extension (Single nt)” value ([1]; Time 0) was 0.00% and the “% Extension (Single nt)” value ([1]; Time 0) was 0.00%. The “Average % Extension (Single nt)” value ([1]; Time 0.5) was 11.29%, the “% Extension (Single nt)” value ([1]; Time 0.5) was 12.34% and 11.73% and 9.81% and the “Average % Extension (Single nt)” value ([1]; Time 1) was 18.42%. The “% Extension (Single nt)” value ([1]; Time 1) was 20.67% and 19.99% and 14.59%, the “Average % Extension (Single nt)” value ([1]; Time 2) was 25.83% and the “% Extension (Single nt)” value ([1]; Time 2) was 27.74% and 29.45% and 20.29%. The “pooled Average (normalized)” value ([2]; RTX-161 2.5 micro M) was 50.51, the Normalized ([2]; RTX-161 2.5 micro M) was 61.5322 and 50 and 40 and the Normalized ([2]; RTX-161 5 micro M) was 48.9756 and 28.3333 and 33.3333. For the same compound, the “pooled Average (normalized)” value ([2]; RTX-161 10 micro M) was 33.4, the “pooled Average (normalized)” value ([2]; RTX-161 20 micro M) was 18.83 and the “survival relative to 0 uM” value ([2]; RTx-161 1.25 uM) was 84.85% and 90.38%. For the same compound, the “survival relative to 0 uM” value ([2]; RTx-161 2.5 uM) was 72.73% and 53.85%, the “survival relative to 0 uM” value ([2]; RTx-161 5 uM) was 60.61% and 50.00% and the “survival relative to 0 uM” value ([2]; RTx-161 10 uM) was 51.52% and 57.69%. The “survival relative to 0 uM” value ([2]; RTx-161 20 uM) was 39.39% and 48.08%, the “survival relative to 0 uM, mean of the four experiments” value (shortened to “survival relative to 0 uM, mean”) ([2]; RTx-161 1.25 uM) was 86.23% and the “survival relative to 0 uM, mean” value ([2]; RTx-161 2.5 uM) was 67.71%. The “survival relative to 0 uM, mean” value ([2]; RTx-161 5 uM) was 56.39%, the “survival relative to 0 uM, mean” value ([2]; RTx-161 10 uM) was 54.03% and the “survival relative to 0 uM, mean” value ([2]; RTx-161 20 uM) was 47.47%. The “selective killing of Brca1^cc/cc MEFs” value ([2]; versus Brca1-WT MEFs) was “selective killing”, the “pooled Average (normalized)” value ([3]; RTX-161 2.5 micro M) was 86.6767 and the Normalized ([3]; RTX-161 2.5 micro M) was 94.0299 and 78.7879 and 87.2314. The “pooled Average (normalized)” value ([3]; RTX-161 5 micro M) was 84.2267, the Normalized ([3]; RTX-161 5 micro M) was 88.0597 and 81.8182 and 82.8237 and the “pooled Average (normalized)” value ([3]; RTX-161 10 micro M) was 87.7867. The Normalized ([3]; RTX-161 10 micro M) was 100 and 72.7273 and 90.6469, the “pooled Average (normalized)” value ([3]; RTX-161 20 micro M) was 78.36 and the Normalized ([3]; RTX-161 20 micro M) was 65.6716 and 68.1818 and 101.237. For the same compound, the “survival relative to 0 uM” value ([3]; 150 cells/well, RTx-161 1.25 uM) was 95.92% and 83.78%, the “survival relative to 0 uM” value ([3]; 150 cells/well, RTx-161 2.5 uM) was 108.16% and 89.19% and the “survival relative to 0 uM” value ([3]; 150 cells/well, RTx-161 5 uM) was 104.08% and 81.08%. For the same compound, the “survival relative to 0 uM” value ([3]; 150 cells/well, RTx-161 10 uM) was 102.04% and 78.38%, the “survival relative to 0 uM” value ([3]; 150 cells/well, RTx-161 20 uM) was 87.76% and 86.49% and the “survival relative to 0 uM” value ([3]; 300 cells/well, RTx-161 1.25 uM) was 109.62% and 92.19%. The “survival relative to 0 uM” value ([3]; 300 cells/well, RTx-161 2.5 uM) was 88.46% and 93.75%, the “survival relative to 0 uM” value ([3]; 300 cells/well, RTx-161 5 uM) was 92.31% and 106.25% and the “survival relative to 0 uM” value ([3]; 300 cells/well, RTx-161 10 uM) was 96.15% and 100.00%. The “survival relative to 0 uM” value ([3]; 300 cells/well, RTx-161 20 uM) was 103.85% and 96.88%, the “survival relative to 0 uM, mean” value ([3]; RTx-161 1.25 uM) was 95.38% and the “survival relative to 0 uM, mean” value ([3]; RTx-161 2.5 uM) was 94.89%. The “survival relative to 0 uM, mean” value ([3]; RTx-161 5 uM) was 95.93%, the “survival relative to 0 uM, mean” value ([3]; RTx-161 10 uM) was 94.14% and the “survival relative to 0 uM, mean” value ([3]; RTx-161 20 uM) was 93.74%.
